In assay [1] the target is MAPK14 (UniProt Q16539). Nature of the assay: TNF Inhibition (In Vivo Assay).
Assay [2] deals with MAPK14 (UniProt Q16539). Nature of the assay: MAPK14 (CSBP) Binding Inhibition.

Structures are written as SMILES.

In the Kinase Knowledgebase extract (Sharma et al. 2016) one finds IC50 data, which are given here for seven compounds.

A word on the IC50: it is the concentration at which inhibition is half-maximal.

MAPK14, sequence (Q16539 whole entry, looked up): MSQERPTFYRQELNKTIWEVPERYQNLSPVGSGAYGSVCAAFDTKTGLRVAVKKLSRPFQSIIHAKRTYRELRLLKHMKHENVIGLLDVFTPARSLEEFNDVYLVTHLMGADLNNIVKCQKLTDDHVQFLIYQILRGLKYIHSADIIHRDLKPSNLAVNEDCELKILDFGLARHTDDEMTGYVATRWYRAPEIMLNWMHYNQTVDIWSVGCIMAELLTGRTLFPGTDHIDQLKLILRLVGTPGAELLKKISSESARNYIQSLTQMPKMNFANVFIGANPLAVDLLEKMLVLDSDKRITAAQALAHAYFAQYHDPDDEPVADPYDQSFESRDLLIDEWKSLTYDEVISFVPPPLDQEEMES

`CC(C)Oc1nccc(-c2c(-c3ccc(F)cc3)ncn2C2CCC(=O)CC2)n1`: the IC50 in assay [1] and in assay [2] was less than 50 µM in each case. Compound `CSc1nccc(-c2c(-c3ccc(F)cc3)ncn2C2CCC(=O)CC2)n1` yielded an IC50 in assay [2] of less than 50 µM. The same measure, in the same setting: the figure for `CSc1nccc(-c2c(-c3ccc(F)cc3)ncn2[C@H]2CC[C@H](O)CC2)n1` is less than 50 µM. For `COc1nccc(-c2c(-c3ccc(F)cc3)ncn2[C@H]2CC[C@@](C)(O)CC2)n1.COc1nccc(-c2c(-c3ccc(F)cc3)ncn2[C@H]2CC[C@](C)(O)CC2)n1`, the 50% inhibitory concentration (IC50) in assay [1] and in assay [2] was less than 50 µM in each case. For `COc1nccc(-c2c(-c3ccc(F)cc3)ncn2C2CCC(=O)CC2)n1`, the IC50 in assay [1] and in assay [2] was less than 50 µM throughout. Consider `CC(C)Oc1nccc(-c2c(-c3ccc(F)cc3)ncn2C2CCC(O)CC2)n1` (stereo unspecified), for which the IC50 in assay [1] and in assay [2] was less than 50 µM throughout. In assay [2], `O=C1CCC(n2cnc(-c3ccc(F)cc3)c2-c2ccnc(O)n2)CC1` yielded an IC50 of less than 50 µM.
